Test results published in ChEMBL document CHEMBL1124922 (J Med Chem, 1990).

Key:
[1] = Evaluated for cytotoxicity under aerobic conditions against AA8 cells using microassay; type: cell-based; settings: Cricetulus griseus, CHO-AA8
Cricetulus griseus = organism: Cricetulus griseus; test: Evaluated for hypersensitivity factor (HF) (HF = IC50 AA8 / IC50 UV-4) values are intra experiment ratios; type: functional
[2] = Evaluated for cytotoxicity under aerobic conditions against UV4 cells using microassay; type: cell-based; settings: Cricetulus griseus

Structure (SMILES)	IC50 [1] [µM]	Ratio (Cricetulus griseus)	IC50 [2] [µM]
O=[N+]([O-])c1cccc(N(CCO)CCO)c1	3060		
CS(=O)(=O)OCCN(CCOS(C)(=O)=O)c1ccc([N+](=O)[O-])cc1		> 1	1.39
CS(=O)(=O)OCCN(CCOS(C)(=O)=O)c1ccccc1	13.6	30	0.59
O=[N+]([O-])c1ccc(N(CCO)CCO)cc1	3200		
O=[N+]([O-])c1ccccc1N(CCO)CCO	7970		
